Laboratory results taken from article PMC12226733, “Evolution of iGluR ligand specificity, polyamine regulation, and ion selectivity inferred from a placozoan epsilon receptor” (Communications Biology, 2025).
Substitutions are numbered along the chain they refer to. “And” between values parts separate entries of the source, which are not always exact repeats. Identical values can stand only once. Like-named read-outs stand apart in the source and are kept apart here.

Key:
GluE1αA wt = GluE1αA wt (Trichoplax adhaerens, UniProt B3SAW0); details: for Normalized current (Inorm) GluE1αA wild type: single recordings and AVG
Chain of GluE1αA wt (B3SAW0 1-341): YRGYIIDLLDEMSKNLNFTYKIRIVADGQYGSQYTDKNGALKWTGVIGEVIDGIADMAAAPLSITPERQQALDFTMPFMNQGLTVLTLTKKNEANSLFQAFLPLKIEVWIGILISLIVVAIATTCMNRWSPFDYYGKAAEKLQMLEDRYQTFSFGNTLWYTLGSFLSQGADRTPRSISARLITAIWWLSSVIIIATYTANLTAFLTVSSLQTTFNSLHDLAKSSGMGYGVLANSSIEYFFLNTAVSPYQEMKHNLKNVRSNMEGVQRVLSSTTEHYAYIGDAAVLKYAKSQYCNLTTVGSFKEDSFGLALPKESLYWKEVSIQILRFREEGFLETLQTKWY
Source text: (§1) To further elucidate the nature of internal polyamine block in GluE1αA, we performed outside-out membrane patch clamp experiments in wildtype and mutant channels. […] Current-voltage (I-V) relationships were converted to conductance-voltage (G-V) plots and fit with a single permeant blocker model to estimate both the dissociation constant for Spm at 0 mV (Kd(0mV)) and the voltage dependency of block, as previously described[46],[47].
(§2) HEK-293T/17 cells (ATCC) were maintained in MEM supplemented with GlutaMAX and 10% fetal bovine serum (FBS) at 37 °C and 5% CO2. […] Transient transfections were carried out 48 h post-plating using the calcium phosphate precipitation method. After 6–8 hours, cells were washed twice with PBS and maintained in fresh medium. Cells transfected with mammalian GluA2 cDNA (plasmid vector described above) were returned to an incubator at 37 °C for 24–48 hours and cells transfected with Epsilon GluE1αA were incubated at 28 °C for 48–72 hours. In cells co-transfected with TARP-γ2, 30 μM NBQX was included in the medium to minimize AMPAR/auxiliary-induced cytotoxicity. All constructs were co-transfected with a plasmid encoding enhanced green fluorescent protein (eGFP) to identify transfected cells. Electrophysiology responses were recorded from outside-out patches excised from transfected cells. Recording pipettes were composed of borosilicate glass (3 to 6 megaohm, King Precision Glass) coated with dental wax to reduce electrical noise. All recordings were performed using Axopatch 200B amplifier (Molecular Devices, LLC). Current records were filtered at 5 or 10 kHz and sampled at 25–50 kHz. Series resistance (3 to 12 megaohms) was compensated by 95%. Recordings were performed at a range of holding potentials from −100 mV to 100 mV to study polyamine block. Data was acquired using pClamp9 software (Molecular Devices, LLC). All experiments were performed at room temperature. All chemicals were purchased from Sigma-Aldrich, unless otherwise indicated. External solution contained (in mM): 150 NaCl, 5 HEPES, 0.1 CaCl2, 0.1 MgCl, and […], pH 7.3–7.4. […] The osmotic pressure of all solutions was adjusted to 295 to 300 mOsm with sucrose. […] Stocks were thawed on the day of the experiment and used to prepared agonist-containing external solutions. Raw data for all electrophysiology experiments are provided in Supplementary Data 3. Current-voltage (I-V) relationships were fit using Origin 7 (OriginLab) using a ninth order polynomial function to estimate the reversal potential (Vrev).
(§3) Agonist-evoked membrane conductance (G) was calculated using the following equation: G=I/(V−Vrev)
(§4) Conductance-voltage (G-V) relationships were fit using Origin 7 (OriginLab) with the single permeant blocker model as done previously[46]: G=Gmax/1+[Spm]/Kd Where Gmax is the maximal conductance, [Spm] is the internal Spm concentration, and Kd is the dissociation constant.
(§5) Kd is defined as: Kd=koff+kperm/kon=sumofexitrates/bindingrate
(§6) And redefined as: Kd=g*exp(V/h)+L*exp(V/k) Where h and k are voltage dependencies of g and L, respectively, and at 0 mV: g=koff/konandL=kperm/kon

GluE1αA S642N = molecular target: T1, GluE1αA S642N (Trichoplax adhaerens, UniProt B3SAW0, S167N)
T1 sequence (B3SAW0 1-341 S167N): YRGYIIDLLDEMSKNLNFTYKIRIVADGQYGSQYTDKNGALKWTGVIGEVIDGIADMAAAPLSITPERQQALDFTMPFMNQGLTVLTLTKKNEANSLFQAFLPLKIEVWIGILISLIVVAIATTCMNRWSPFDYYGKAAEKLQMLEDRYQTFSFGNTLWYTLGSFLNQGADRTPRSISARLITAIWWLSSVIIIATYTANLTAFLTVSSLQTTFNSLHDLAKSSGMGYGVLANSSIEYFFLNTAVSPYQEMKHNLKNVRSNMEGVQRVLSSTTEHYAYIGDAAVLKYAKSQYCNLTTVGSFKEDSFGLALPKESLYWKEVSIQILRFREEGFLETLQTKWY
Source text: as §1, §2, §3, §4, §5, §6

GluE1αA S642Q [1] = molecular target: T2, GluE1αA S642Q (Trichoplax adhaerens, UniProt B3SAW0, S167Q)
T2 sequence (B3SAW0 1-341 S167Q): T1 sequence (B3SAW0 1-341 S167N) with N167Q
Source text: as §1, §2, §3, §4, §5, §6

GluE1αA S642Q [2] = molecular target: T2, GluE1αA S642Q; format: cell-based; details: […]; for normalized conductance (G-V, Figure 5g), Avg: Na vs Na; for I-V current, Na vs Na, Avg of recordings: Figure 5b
GluA2 Q607S = molecular target: T3, GluA2 Q607S (Homo sapiens, UniProt P42262, Q607S); format: cell-based; details: GluA2 Q-S; for normalized conductance (G-V, Figure 5g), Avg: Na vs Na; for I-V current, Na vs Na, Avg of recordings: Figure 5b
T3 construct: host or cells: HEK-293T/17
T3 sequence (P42262 25-883 Q607S): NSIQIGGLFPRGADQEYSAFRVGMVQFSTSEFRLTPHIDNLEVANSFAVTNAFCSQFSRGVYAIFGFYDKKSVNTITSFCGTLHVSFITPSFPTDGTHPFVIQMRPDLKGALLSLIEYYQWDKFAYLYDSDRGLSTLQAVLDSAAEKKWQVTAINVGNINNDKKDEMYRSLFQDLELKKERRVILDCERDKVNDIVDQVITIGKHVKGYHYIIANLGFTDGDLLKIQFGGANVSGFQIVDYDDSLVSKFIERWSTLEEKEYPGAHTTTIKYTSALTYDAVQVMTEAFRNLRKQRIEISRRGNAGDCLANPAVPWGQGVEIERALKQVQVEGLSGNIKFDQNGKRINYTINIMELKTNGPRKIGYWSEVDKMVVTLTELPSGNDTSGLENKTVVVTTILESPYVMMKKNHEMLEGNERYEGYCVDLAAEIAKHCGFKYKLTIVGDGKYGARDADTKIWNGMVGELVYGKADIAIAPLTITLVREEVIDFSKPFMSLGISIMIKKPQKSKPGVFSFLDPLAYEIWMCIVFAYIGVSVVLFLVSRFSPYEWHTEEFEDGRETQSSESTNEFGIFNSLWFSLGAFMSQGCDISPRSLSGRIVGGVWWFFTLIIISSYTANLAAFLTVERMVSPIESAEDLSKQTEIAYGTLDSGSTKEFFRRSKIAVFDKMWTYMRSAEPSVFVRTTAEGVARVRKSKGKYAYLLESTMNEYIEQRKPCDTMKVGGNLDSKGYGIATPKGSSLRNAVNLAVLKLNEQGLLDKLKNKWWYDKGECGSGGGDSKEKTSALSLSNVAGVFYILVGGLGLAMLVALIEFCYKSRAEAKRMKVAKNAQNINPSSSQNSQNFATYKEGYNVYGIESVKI

NCCCNCCCCNCCCN [spermine]
Normalized current (Inorm) GluE1αA wild type (GluE1αA wt; 50 mV): 0.16 and 0.13 and 0.0847 | Normalized current (Inorm) GluE1αA wild type (GluE1αA wt; -100 mV): -1.00 | h, voltage dependency of block onset (GluE1αA wt; GluE1αA wt): −18.5 ± 0.6 mV | k, voltage dependency of block relief (GluE1αA wt; GluE1αA wt): 36.5 ± 4.7 mV | Normalized conductance (Gnorm) (GluE1αA S642N; 0 mV, single recordings c1-c7, AVG c8): 0.27 and 0.16 and 0.22 | Normalized conductance (Gnorm) (GluE1αA S642N; -80 mV, single recordings c1-c7, AVG c8): 0.79 | Normalized current (Inorm) (GluE1αA S642N; -100 mV, single recordings c1-c7, AVG c8): -1.00 | h, voltage dependency of block onset (GluE1αA S642N; GluE1αA S642N): −26.4 ± 1.3 mV | k, voltage dependency of block relief (GluE1αA S642N; GluE1αA S642N): 34.9 ± 3.7 mV | Normalized current (Inorm) (GluE1αA S642Q [1]; -100 mV, single recordings c1-c10, AVG c11): -1.00 | h, voltage dependency of block onset (GluE1αA S642Q [1]; GluE1αA S642Q): −15.3 ± 0.7 mV | k, voltage dependency of block relief (GluE1αA S642Q [1]; GluE1αA S642Q): 28.3 ± 2.1 mV

[Na+] [Na]
normalized conductance (G-V, Figure 5g), Avg (GluE1αA S642Q [2]; Vm 0.00): 0.20 | normalized conductance (G-V, Figure 5g), Avg (GluE1αA S642Q [2]; Vm 20.00): 0.25 | normalized conductance (G-V, Figure 5g), Avg (GluE1αA S642Q [2]; Vm 40.00): 0.52 | normalized conductance (G-V, Figure 5g), Avg (GluE1αA S642Q [2]; Vm 60.00): 0.72 | normalized conductance (G-V, Figure 5g), Avg (GluE1αA S642Q [2]; Vm 80.00): 0.79 | normalized conductance (G-V, Figure 5g), Avg (GluE1αA S642Q [2]; Vm -20.00): 0.51 | normalized conductance (G-V, Figure 5g), Avg (GluE1αA S642Q [2]; Vm -40.00): 0.84 | normalized conductance (G-V, Figure 5g), Avg (GluE1αA S642Q [2]; Vm -60.00): 0.93 | normalized conductance (G-V, Figure 5g), Avg (GluE1αA S642Q [2]; Vm -80.00): 1.00 | I-V current, Na vs Na, Avg of recordings (GluE1αA S642Q [2]; Vm 0.00): 0.0017 | I-V current, Na vs Na, Avg of recordings (GluE1αA S642Q [2]; Vm 20.00): 0.0327 | I-V current, Na vs Na, Avg of recordings (GluE1αA S642Q [2]; Vm 40.00): 0.13 | I-V current, Na vs Na, Avg of recordings (GluE1αA S642Q [2]; Vm 60.00): 0.30 | I-V current, Na vs Na, Avg of recordings (GluE1αA S642Q [2]; Vm 80.00): 0.51 | I-V current, Na vs Na, Avg of recordings (GluE1αA S642Q [2]; Vm -20.00): -0.07 | I-V current, Na vs Na, Avg of recordings (GluE1αA S642Q [2]; Vm -40.00): -0.26 | I-V current, Na vs Na, Avg of recordings (GluE1αA S642Q [2]; Vm -60.00): -0.50 | I-V current, Na vs Na, Avg of recordings (GluE1αA S642Q [2]; Vm -80.00): -0.73 | normalized conductance (G-V, Figure 5g), Avg (GluA2 Q607S; Vm 0.00): 0.29 | normalized conductance (G-V, Figure 5g), Avg (GluA2 Q607S; Vm 20.00): 0.39 | normalized conductance (G-V, Figure 5g), Avg (GluA2 Q607S; Vm 40.00): 0.47 | normalized conductance (G-V, Figure 5g), Avg (GluA2 Q607S; Vm 60.00): 0.53 | normalized conductance (G-V, Figure 5g), Avg (GluA2 Q607S; Vm 80.00): 0.52 | normalized conductance (G-V, Figure 5g), Avg (GluA2 Q607S; Vm -20.00): 0.28 | normalized conductance (G-V, Figure 5g), Avg (GluA2 Q607S; Vm -40.00): 0.39 | normalized conductance (G-V, Figure 5g), Avg (GluA2 Q607S; Vm -60.00): 0.63 | normalized conductance (G-V, Figure 5g), Avg (GluA2 Q607S; Vm -80.00): 1.00 | I-V current, Na vs Na, Avg of recordings (GluA2 Q607S; Vm 0.00): -0.0234 | I-V current, Na vs Na, Avg of recordings (GluA2 Q607S; Vm 20.00): 0.09 | I-V current, Na vs Na, Avg of recordings (GluA2 Q607S; Vm 40.00): 0.23 | I-V current, Na vs Na, Avg of recordings (GluA2 Q607S; Vm 60.00): 0.41 | I-V current, Na vs Na, Avg of recordings (GluA2 Q607S; Vm 80.00): 0.57 | I-V current, Na vs Na, Avg of recordings (GluA2 Q607S; Vm -20.00): -0.10 | I-V current, Na vs Na, Avg of recordings (GluA2 Q607S; Vm -40.00): -0.20 | I-V current, Na vs Na, Avg of recordings (GluA2 Q607S; Vm -60.00): -0.35 | I-V current, Na vs Na, Avg of recordings (GluA2 Q607S; Vm -80.00): -0.61
